Test results as given in PubChem BioAssay AID2060906 (Molecular Pharmacology Branch, DTP, NCI, 2025).

Tested on: 485176-168-R4-J1-PDC complex spheroid growth
Experiment: Anticancer human tumor 485176-168-R4-J1-PDC patient-derived pancreatic adenocarcinoma cell line growth inhibition [RAS]
Conditions: for IC50: curve of first compound; for viability, T/C: stronger effect = lower value
Outline: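 Tumour cells grown as complex spheroids with HUVEC endothelial cells and mesenchymal stem cells, treated with RAS pathway inhibitor combinations. Each agent spans half-log steps from near clinical Cmax, or 10 microM where Cmax is unknown.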

[1] = second compound 0.000949 µM, first compound 0.0316 µM
[2] = second compound 0.000949 µM, first compound 0.1 µM
[3] = second compound 0.000949 µM, first compound 0.316 µM
[4] = second compound 0.000949 µM, first compound 1 µM
[5] = second compound 0.003 µM, first compound 0.0316 µM
[6] = second compound 0.003 µM, first compound 0.1 µM
[7] = second compound 0.003 µM, first compound 0.316 µM
[8] = second compound 0.003 µM, first compound 1 µM
[9] = second compound 0.00949 µM, first compound 0.0316 µM
[10] = second compound 0.00949 µM, first compound 0.1 µM
[11] = second compound 0.00949 µM, first compound 0.316 µM
[12] = second compound 0.00949 µM, first compound 1 µM
[13] = second compound 0.03 µM, first compound 0.0316 µM
[14] = second compound 0.03 µM, first compound 0.1 µM
[15] = second compound 0.03 µM, first compound 0.316 µM
[16] = second compound 0.03 µM, first compound 1 µM
[17] = second compound 0.0949 µM, first compound 0.0316 µM
[18] = second compound 0.0949 µM, first compound 0.1 µM
[19] = second compound 0.0949 µM, first compound 0.316 µM
[20] = second compound 0.0949 µM, first compound 1 µM
[21] = second compound 0.3 µM, first compound 0.0316 µM
[22] = second compound 0.3 µM, first compound 0.1 µM
[23] = second compound 0.3 µM, first compound 0.316 µM
[24] = second compound 0.3 µM, first compound 1 µM
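Note: spheroids exposed to compounds for seven days before readout.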
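Throughout, for viability, T/C: luminescence viability expressed relative to DMSO vehicle wells set as 100%.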

## O=C(c1ccc(F)c(F)c1Nc1ccc(I)cc1F)N1CC(O)([C@@H]2CCCCN2)C1 + CCn1c(-c2cccnc2C(C)OC)c2c3cc(ccc31)N1CCOC(CC(NC(=O)C(C(C)C)N(C)C(=O)C3(F)CCN(C(=O)C#CC(C)(C)N(C)C)CC3)C(=O)N3CCCC(N3)C(=O)OCC(C)(C)C2)C1
Second compound 0.000949 µM
  IC50: 349 nM
Second compound 0.003 µM
  IC50: 409 nM
Second compound 0.00949 µM
  IC50: 154 nM
Second compound 0.03 µM
  IC50: 235 nM
Second compound 0.0949 µM
  IC50: 142 nM
Second compound 0.3 µM
  IC50: 32.6 nM
Second compound 0.000949 µM, first compound 0.00316 µM
  viability, T/C: 90.4%
Second compound 0.000949 µM, first compound 0.01 µM
  viability, T/C: 79%
[1]
  viability, T/C: 86.3%
[2]
  viability, T/C: 61.4%
[3]
  viability, T/C: 53.8%
[4]
  viability, T/C: 39.9%
Second compound 0.003 µM, first compound 0.00316 µM
  viability, T/C: 79.3%
Second compound 0.003 µM, first compound 0.01 µM
  viability, T/C: 65.8%
[5]
  viability, T/C: 73.2%
[6]
  viability, T/C: 58%
[7]
  viability, T/C: 50.9%
[8]
  viability, T/C: 43.7%
Second compound 0.00949 µM, first compound 0.00316 µM
  viability, T/C: 77.8%
Second compound 0.00949 µM, first compound 0.01 µM
  viability, T/C: 85.8%
[9]
  viability, T/C: 68.6%
[10]
  viability, T/C: 55%
[11]
  viability, T/C: 43.4%
[12]
  viability, T/C: 36%
Second compound 0.03 µM, first compound 0.00316 µM
  viability, T/C: 97.1%
Second compound 0.03 µM, first compound 0.01 µM
  viability, T/C: 89.8%
[13]
  viability, T/C: 69.3%
[14]
  viability, T/C: 51.9%
[15]
  viability, T/C: 56.7%
[16]
  viability, T/C: 36.7%
Second compound 0.0949 µM, first compound 0.00316 µM
  viability, T/C: 89.7%
Second compound 0.0949 µM, first compound 0.01 µM
  viability, T/C: 64.1%
[17]
  viability, T/C: 68.6%
[18]
  viability, T/C: 53.6%
[19]
  viability, T/C: 44.2%
[20]
  viability, T/C: 32.3%
Second compound 0.3 µM, first compound 0.00316 µM
  viability, T/C: 67.2%
Second compound 0.3 µM, first compound 0.01 µM
  viability, T/C: 70.8%
[21]
  viability, T/C: 50.2%
[22]
  viability, T/C: 45.6%
[23]
  viability, T/C: 40%
[24]
  viability, T/C: 39.5%

## CC(Nc1ccc2c(c1)OCCn1cc(N3C(=O)OCC3C(F)F)nc1-2)C(N)=O (centres undefined) + CCn1c(-c2cc(N3CCN(C)CC3)cnc2C(C)OC)c2c3cc(ccc31)-c1csc(n1)CC(NC(=O)C1CC1C)C(=O)N1CCCC(N1)C(=O)OCC(C)(C)C2
Second compound 0.000949 µM
  IC50: > 10000 nM
Second compound 0.003 µM
  IC50: > 10000 nM
Second compound 0.00949 µM
  IC50: 7940 nM
Second compound 0.03 µM
  IC50: 7650 nM
Second compound 0.0949 µM
  IC50: 2110 nM
Second compound 0.3 µM
  IC50: > 10000 nM
[1]
  viability, T/C: 100%
[2]
  viability, T/C: 91.9%
[3]
  viability, T/C: 71.8%
[4]
  viability, T/C: 79.8%
Second compound 0.000949 µM, first compound 3.16 µM
  viability, T/C: 70.5%
Second compound 0.000949 µM, first compound 10 µM
  viability, T/C: 51.1%
[5]
  viability, T/C: 92.8%
[6]
  viability, T/C: 74.8%
[7]
  viability, T/C: 73.7%
[8]
  viability, T/C: 72%
Second compound 0.003 µM, first compound 3.16 µM
  viability, T/C: 61.3%
Second compound 0.003 µM, first compound 10 µM
  viability, T/C: 47%
[9]
  viability, T/C: 81.5%
[10]
  viability, T/C: 72.7%
[11]
  viability, T/C: 76.9%
[12]
  viability, T/C: 76.1%
Second compound 0.00949 µM, first compound 3.16 µM
  viability, T/C: 62.2%
Second compound 0.00949 µM, first compound 10 µM
  viability, T/C: 46.7%
[13]
  viability, T/C: 75.9%
[14]
  viability, T/C: 78.5%
[15]
  viability, T/C: 69.3%
[16]
  viability, T/C: 60.5%
Second compound 0.03 µM, first compound 3.16 µM
  viability, T/C: 58%
Second compound 0.03 µM, first compound 10 µM
  viability, T/C: 48.1%
[17]
  viability, T/C: 66.9%
[18]
  viability, T/C: 83.7%
[19]
  viability, T/C: 77.1%
[20]
  viability, T/C: 51.9%
Second compound 0.0949 µM, first compound 3.16 µM
  viability, T/C: 56.8%
Second compound 0.0949 µM, first compound 10 µM
  viability, T/C: 41.2%
[21]
  viability, T/C: 75.6%
[22]
  viability, T/C: 72.3%
[23]
  viability, T/C: 57.6%
[24]
  viability, T/C: 57.7%
Second compound 0.3 µM, first compound 3.16 µM
  viability, T/C: 51.3%
Second compound 0.3 µM, first compound 10 µM
  viability, T/C: 51.2%
